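Dose response: 5 concentrations. Exposure: 48 h. Format: 96-well plates. Endpoint: linear interpolation; highest concentration if not reached. GI50 is the concentration that inhibits growth by half.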 Calls of active or inactive are those of the source. No stated cut-off is given here; in the data, active = GI50 up to about 1.1 µM and inactive = higher.
Legend:
Assay in all cases: inhibition of tumour cell growth, NCI panel, 48 h
[1] = tested on: IGROV-1
[2] = tested on: K562
[3] = tested on: HCT-15
[4] = tested on: Malme-3M
[5] = tested on: SR
[6] = tested on: NCI-H522
[7] = tested on: UACC-257
[8] = tested on: MDA-N
[9] = tested on: SW-620
[10] = tested on: SK-OV-3
[11] = tested on: NCI-H460
[12] = tested on: MOLT-4
[13] = tested on: UO-31
[14] = tested on: T47D
[15] = tested on: A549
[16] = tested on: SNB-75
[17] = tested on: CCRF-CEM
[18] = tested on: MDA-MB-231
[19] = tested on: 786-0
[20] = tested on: EKVX
[21] = tested on: SF-295
[22] = tested on: HT-29
[23] = tested on: TK-10
[24] = tested on: MDA-MB-435
[25] = tested on: COLO 205
[26] = tested on: SK-MEL-5
[27] = tested on: U-251
[28] = tested on: SNB-19
[29] = tested on: OVCAR-8
[30] = tested on: SK-MEL-28
[31] = tested on: LOX IMVI
[32] = tested on: SF-268
[33] = tested on: RPMI-8226
[34] = tested on: UACC-62
[35] = tested on: NCI-H23
[36] = tested on: DU-145
[37] = tested on: OVCAR-5
[38] = tested on: NCI-H226
[39] = tested on: CAKI-1
[40] = tested on: HCC 2998
[41] = tested on: A498
[42] = tested on: SN12C
[43] = tested on: NCI/ADR-RES
[44] = tested on: PC-3
[45] = tested on: HCT-116
[46] = tested on: MCF7
[47] = tested on: ACHN
[48] = tested on: OVCAR-4
[49] = tested on: RXF 393
[50] = tested on: SK-MEL-2
[51] = tested on: HOP-92
[52] = tested on: Hs-578T
[53] = tested on: BT-549
[54] = tested on: M14
[55] = tested on: HOP-62
[56] = tested on: OVCAR-3
[57] = tested on: KM12
[58] = tested on: SF-539

CC1NC(=O)c2c(-c3ccccc3)nn(-c3ccccc3)c2NC1=O (stereo not drawn)
GI50 [1]: > 100 µM (inactive)
GI50 [2]: > 100 µM (inactive)
GI50 [3]: > 100 µM
GI50 [4]: > 100 µM (inactive)
GI50 [5]: > 100 µM (inactive)
GI50 [6]: > 100 µM (inactive)
GI50 [7]: > 100 µM (inactive)
GI50 [8]: > 100 µM (inactive)
GI50 [9]: > 100 µM (inactive)
GI50 [10]: > 100 µM (inactive)
GI50 [11]: > 100 µM (inactive)
GI50 [12]: > 100 µM (inactive)
GI50 [13]: > 100 µM (inactive)
GI50 [14]: > 100 µM (inactive)
GI50 [15]: > 100 µM (inactive)
GI50 [16]: > 100 µM (inactive)
GI50 [17]: > 100 µM (inactive)
GI50 [18]: > 100 µM (inactive)
GI50 [19]: > 100 µM (inactive)
GI50 [20]: > 100 µM (inactive)
GI50 [21]: > 100 µM (inactive)
GI50 [22]: > 100 µM (inactive)
GI50 [23]: > 100 µM (inactive)
GI50 [24]: > 100 µM (inactive)
GI50 [25]: > 100 µM (inactive)
GI50 [26]: > 100 µM (inactive)
GI50 [27]: > 100 µM (inactive)
GI50 [28]: > 100 µM (inactive)
GI50 [29]: > 100 µM (inactive)
GI50 [30]: > 100 µM (inactive)
GI50 [31]: > 100 µM (inactive)
GI50 [32]: > 100 µM (inactive)
GI50 [33]: > 100 µM (inactive)
GI50 [34]: > 100 µM (inactive)
GI50 [35]: > 100 µM (inactive)
GI50 [36]: > 100 µM (inactive)
GI50 [37]: > 100 µM (inactive)
GI50 [38]: > 100 µM (inactive)
GI50 [39]: > 100 µM (inactive)
GI50 [40]: > 100 µM (inactive)
GI50 [41]: > 100 µM (inactive)
GI50 [42]: > 100 µM (inactive)
GI50 [43]: > 100 µM (inactive)
GI50 [44]: > 100 µM (inactive)
GI50 [45]: > 100 µM (inactive)
GI50 [46]: > 100 µM (inactive)
GI50 [47]: > 100 µM (inactive)
GI50 [48]: > 100 µM (inactive)
GI50 [49]: > 100 µM (inactive)
GI50 [50]: > 100 µM (inactive)
GI50 [51]: > 100 µM (inactive)
GI50 [52]: > 100 µM (inactive)
GI50 [53]: > 100 µM (inactive)
GI50 [54]: > 100 µM (inactive)
GI50 [55]: > 100 µM (inactive)
GI50 [56]: 37.4 µM (inactive)
GI50 [57]: > 100 µM (inactive)

COC(=O)c1sc(=S)sc1SCc1cccc(CSc2sc(=S)sc2C(=O)OC)c1
GI50 [1]: 60.7 µM (inactive)
GI50 [2]: 79.8 µM (inactive)
GI50 [58]: 24.6 µM (inactive)
GI50 [3]: > 100 µM
GI50 [4]: > 100 µM (inactive)
GI50 [5]: > 100 µM (inactive)
GI50 [6]: > 100 µM (inactive)
GI50 [7]: > 100 µM (inactive)
GI50 [8]: > 100 µM (inactive)
GI50 [9]: > 100 µM (inactive)
GI50 [10]: 19.6 µM (inactive)
GI50 [11]: > 100 µM (inactive)
GI50 [12]: > 100 µM (inactive)
GI50 [13]: > 100 µM (inactive)
GI50 [14]: > 100 µM (inactive)
GI50 [16]: 11.6 µM (inactive)
GI50 [17]: > 100 µM (inactive)
GI50 [18]: 36.6 µM (inactive)
GI50 [19]: 33.4 µM (inactive)
GI50 [20]: 56 µM (inactive)
GI50 [21]: 26 µM (inactive)
GI50 [22]: > 100 µM (inactive)
GI50 [23]: 29.4 µM (inactive)
GI50 [24]: > 100 µM (inactive)
GI50 [25]: > 100 µM (inactive)
GI50 [26]: > 100 µM (inactive)
GI50 [27]: 25.3 µM (inactive)
GI50 [28]: 26.8 µM (inactive)
GI50 [29]: > 100 µM (inactive)
GI50 [30]: > 100 µM (inactive)
GI50 [31]: > 100 µM (inactive)
GI50 [32]: 44.5 µM (inactive)
GI50 [33]: > 100 µM (inactive)
GI50 [34]: 22.9 µM (inactive)
GI50 [35]: 27.9 µM (inactive)
GI50 [36]: > 100 µM (inactive)
GI50 [37]: > 100 µM (inactive)
GI50 [39]: 34.5 µM (inactive)
GI50 [40]: > 100 µM (inactive)
GI50 [41]: 24.8 µM (inactive)
GI50 [42]: > 100 µM (inactive)
GI50 [43]: > 100 µM (inactive)
GI50 [44]: > 100 µM (inactive)
GI50 [45]: 90.6 µM (inactive)
GI50 [46]: > 100 µM (inactive)
GI50 [47]: 28.8 µM (inactive)
GI50 [48]: > 100 µM (inactive)
GI50 [49]: 16.2 µM (inactive)
GI50 [50]: 38.8 µM (inactive)
GI50 [51]: 29.4 µM (inactive)
GI50 [52]: 36.3 µM (inactive)
GI50 [53]: 26.9 µM (inactive)
GI50 [54]: 71.3 µM (inactive)
GI50 [55]: 16.1 µM (inactive)
GI50 [56]: 63.4 µM (inactive)
GI50 [57]: > 100 µM (inactive)
